# Experiments:
# [1] = molecular target: AChE (Homo sapiens, UniProt P22303); format: biochemical; conditions: for IC50: Ellman method, saturating substrate (acetylthiocholine), absorbance at 412 nm; for Selectivity IC50 (BuChE)/IC50 (AchE): ratio of IC50 (BuChE) to IC50 (AChE), preference for AChE over BuChE
# [2] = molecular target: BuChE (Homo sapiens, UniProt P06276); experiment: biochemical; format: biochemical; conditions: Ellman method, saturating substrate, absorbance at 412 nm
# Chain of BuChE (P06276 29-602): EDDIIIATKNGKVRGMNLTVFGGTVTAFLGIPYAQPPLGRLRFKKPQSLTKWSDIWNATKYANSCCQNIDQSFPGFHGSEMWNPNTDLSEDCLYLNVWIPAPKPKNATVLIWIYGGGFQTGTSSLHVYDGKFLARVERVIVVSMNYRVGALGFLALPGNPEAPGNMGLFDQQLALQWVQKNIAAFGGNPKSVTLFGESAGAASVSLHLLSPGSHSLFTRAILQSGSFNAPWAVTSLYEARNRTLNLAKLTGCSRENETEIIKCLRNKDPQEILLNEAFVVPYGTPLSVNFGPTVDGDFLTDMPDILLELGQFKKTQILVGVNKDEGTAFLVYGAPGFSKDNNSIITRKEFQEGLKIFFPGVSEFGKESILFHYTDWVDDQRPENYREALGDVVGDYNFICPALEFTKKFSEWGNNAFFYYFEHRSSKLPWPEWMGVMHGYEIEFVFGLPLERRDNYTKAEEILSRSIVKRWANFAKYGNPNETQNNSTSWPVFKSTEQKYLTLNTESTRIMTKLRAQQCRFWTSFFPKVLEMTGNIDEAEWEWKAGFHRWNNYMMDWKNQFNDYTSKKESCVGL
# Chain of AChE (P22303 32-614): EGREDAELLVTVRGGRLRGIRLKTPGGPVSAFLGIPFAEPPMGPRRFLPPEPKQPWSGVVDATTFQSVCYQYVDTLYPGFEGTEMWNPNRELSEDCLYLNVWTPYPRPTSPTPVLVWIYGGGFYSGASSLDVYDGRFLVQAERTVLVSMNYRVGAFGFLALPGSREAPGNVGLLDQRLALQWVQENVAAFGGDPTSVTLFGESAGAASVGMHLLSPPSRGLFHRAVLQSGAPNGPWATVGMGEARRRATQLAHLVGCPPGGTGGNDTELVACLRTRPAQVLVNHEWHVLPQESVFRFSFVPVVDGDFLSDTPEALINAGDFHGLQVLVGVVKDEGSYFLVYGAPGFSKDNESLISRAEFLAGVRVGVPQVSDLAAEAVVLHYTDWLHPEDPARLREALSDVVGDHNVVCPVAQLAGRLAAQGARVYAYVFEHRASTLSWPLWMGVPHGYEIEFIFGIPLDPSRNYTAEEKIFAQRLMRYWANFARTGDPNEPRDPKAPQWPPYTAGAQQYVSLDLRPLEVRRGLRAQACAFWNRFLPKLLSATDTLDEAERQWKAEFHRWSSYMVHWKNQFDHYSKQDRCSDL
Structure (SMILES),IC50 [1] [nM],Selectivity IC50 (BuChE)/IC50 (AchE) [1],IC50 [2] [nM]
"CCN(CCCCCCNC1=C(F)C(=O)C(NCCCCCCN(CC)Cc2ccccc2OC)=C(F)C1=O)Cc1ccccc1OC [Compound 35, 2,5-bis-{6-[ethyl-(2-methoxy-benzyl)-amine]-hexylamine}-3,6-difluorine-[1,4]benzoquinone]",5.17 ± 0.17,294,1520 ± 90
"CCN(CCCCCCNC1=C(Br)C(=O)C(NCCCCCCN(CC)Cc2ccccc2OC)=C(Br)C1=O)Cc1ccccc1OC [Compound 36, 2,5-bis-{6-[ethyl-(2-methoxy-benzyl)-amine]-hexylamine}-3,6-dibromine-[1,4]benzoquinone]",2.66 ± 0.19,300,800 ± 62
